{"source": "patent US20060121449A1", "about": "“Method for selection of compounds which inhibit clonal cell growth and use thereof” (priority 2002, published 2006)", "key": {"[1]": {"test_system": "polyoma virus transformed BHK21/c13 cells, clone S100T1", "test": "Clonal test: clonal growth of S100T1 cells in soft agar (Exp 2, 4, 6, 15, 16)", "format": "cell-based, hamster"}, "[2]": {"test_system": "polyoma virus transformed BHK21/c13 cells, line S100T1", "test": "Collocation inhibition test: clonal growth in sparsely and densely seeded areas of a cell density gradient of S100T1 cells in soft agar (Exp 13, 17, 19-26);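 also: soft agar cultures in 24-well plates with a cell density gradient in the top layer, compounds applied from DMSO stocks, clonal growth scored in sparse versus dense areas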;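 as to Clonal growth, H high density area of cell gradient, High: grades rise with clonal growth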;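 as to Clonal growth, H high density area of cell gradient, Low: grades rise with clonal growth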;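 as to Clonal growth, H high density area of cell gradient, Medium: grades rise with clonal growth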;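 as to Clonal growth, L low density area of cell gradient, High: grades rise with clonal growth and minus or plus-minus means none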;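 as to Clonal growth, L low density area of cell gradient, Low: grades rise with clonal growth and minus or plus-minus means none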;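 as to Clonal growth, L low density area of cell gradient, Medium: grades rise with clonal growth and minus or plus-minus means none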", "details": "for Significance: Exp 17 day 14"}, "[3]": {"details": "Exp 15, 32000 S100T1 cells/well"}, "[4]": {"details": "preliminary results, Exp 13-18, 21-26, high concentration"}, "[5]": {"details": "preliminary results, Exp 13-18, 21-26, low concentration"}, "[6]": {"details": "preliminary results, Exp 13-18, 21-26, medium concentration"}}, "note": "“Also recorded” adds a separate entry of the source."}
{"compound": "COc1cc([C@@H]2c3cc4c(cc3[C@H](O)[C@H]3COC(=O)[C@H]23)OCO4)cc(OC)c1OC", "note": "[Podophyllotoxin]", "values": [{"measurement": "Effect on clonal growth at 0.03 μM", "setting": "[1]; [3]", "result": "no significant inhibition"}, {"measurement": "Effect on clonal growth at 0.3 μM", "setting": "[1]; [3]", "result": "inhibited significantly"}, {"measurement": "Concentration inhibiting clones significantly", "setting": "[1]; Exp 16", "result": "More than 0.065 μM Podophyllotoxin inhibited clones"}, {"measurement": "Colony inhibiting activity for dosage within a range that might be therapeutic", "setting": "[1]; Exp 16, about 40000 S100T1 cells/well", "result": "the same activity possibly existed"}, {"measurement": "Significance", "setting": "[1]; Exp 16 day 14, Podophyllotoxin No 5 (lot 12K1562, solved in DMSO 8 days beforehand, stored frozen), 0.3 μM", "result": "probable"}, {"measurement": "Growth", "setting": "[1]; Exp 16 day 14, Podophyllotoxin No 5 (lot 12K1562, solved in DMSO 8 days beforehand, stored frozen), 0.3 μM in wells", "result": "(+))"}, {"measurement": "Growth", "setting": "[1]; Exp 16 day 14, Podophyllotoxin No 5 (lot 12K1562, solved in DMSO 8 days beforehand, stored frozen), 3 μM in wells", "result": "(+))"}, {"measurement": "Significance", "setting": "[1]; Exp 16 day 14, Podophyllotoxin No 5 (lot 12K1562, solved in DMSO 8 days beforehand, stored frozen), 3 μM, ” = as line above", "result": "” and probable and prob-"}, {"measurement": "Significance", "setting": "[1]; Exp 16 day 14, Podophyllotoxin No 6 (lot 12K1562, solved in DMSO the same day), 0.03 μM", "result": "no"}, {"measurement": "Significance", "setting": "[1]; Exp 16 day 14, Podophyllotoxin No 6 (lot 12K1562, solved in DMSO the same day), 0.065 μM", "result": "possible"}, {"measurement": "Growth", "setting": "[1]; Exp 16 day 14, Podophyllotoxin No 6 (lot 12K1562, solved in DMSO the same day), 0.065 μM in wells", "result": "(+)"}, {"measurement": "Significance", "setting": "[1]; Exp 16 day 14, Podophyllotoxin No 7 (lot 12K1562, solved in DMSO the same day), 0.139 μM", "result": "probable"}, {"measurement": "Growth", "setting": "[1]; Exp 16 day 14, Podophyllotoxin No 7 (lot 12K1562, solved in DMSO the same day), 0.139 μM in wells", "result": "(+))"}, {"measurement": "Growth", "setting": "[1]; Exp 16 day 14, Podophyllotoxin No 7 (lot 12K1562, solved in DMSO the same day), 0.3 μM in wells", "result": "(+)"}, {"measurement": "Significance", "setting": "[1]; Exp 16 day 14, Podophyllotoxin No 7 (lot 12K1562, solved in DMSO the same day), 0.3 μM, ” = as line above", "result": "” and possible"}, {"measurement": "Significance", "setting": "[1]; Exp 16 day 21, Podophyllotoxin No 5 (lot 12K1562, solved in DMSO 8 days beforehand, stored frozen), 0.3 μM", "result": "doubtful"}, {"measurement": "Growth", "setting": "[1]; Exp 16 day 21, Podophyllotoxin No 5 (lot 12K1562, solved in DMSO 8 days beforehand, stored frozen), 0.3 μM in wells", "result": "(+"}, {"measurement": "Significance", "setting": "[1]; Exp 16 day 21, Podophyllotoxin No 5 (lot 12K1562, solved in DMSO 8 days beforehand, stored frozen), 3 μM", "result": "probable"}, {"measurement": "Growth", "setting": "[1]; Exp 16 day 21, Podophyllotoxin No 5 (lot 12K1562, solved in DMSO 8 days beforehand, stored frozen), 3 μM in wells", "result": "(+))"}, {"measurement": "Significance", "setting": "[1]; Exp 16 day 21, Podophyllotoxin No 6 (lot 12K1562, solved in DMSO the same day), 0.03 μM", "result": "no"}, {"measurement": "Growth", "setting": "[1]; Exp 16 day 21, Podophyllotoxin No 6 (lot 12K1562, solved in DMSO the same day), 0.03 μM in wells", "result": "++"}, {"measurement": "Significance", "setting": "[1]; Exp 16 day 21, Podophyllotoxin No 6 (lot 12K1562, solved in DMSO the same day), 0.065 μM", "result": "doubtful"}, {"measurement": "Growth", "setting": "[1]; Exp 16 day 21, Podophyllotoxin No 6 (lot 12K1562, solved in DMSO the same day), 0.065 μM in wells", "result": "(+"}, {"measurement": "Significance", "setting": "[1]; Exp 16 day 21, Podophyllotoxin No 7 (lot 12K1562, solved in DMSO the same day), 0.139 μM", "result": "doubtful"}, {"measurement": "Growth", "setting": "[1]; Exp 16 day 21, Podophyllotoxin No 7 (lot 12K1562, solved in DMSO the same day), 0.139 μM in wells", "result": "(+"}, {"measurement": "Significance", "setting": "[1]; Exp 16 day 21, Podophyllotoxin No 7 (lot 12K1562, solved in DMSO the same day), 0.3 μM", "result": "possible"}, {"measurement": "Growth", "setting": "[1]; Exp 16 day 21, Podophyllotoxin No 7 (lot 12K1562, solved in DMSO the same day), 0.3 μM in wells", "result": "(+)"}, {"measurement": "Effect on growth in high- and low-density areas", "setting": "[2]; Exp 17, 144000 S100T1 cells/well", "result": "growth inhibition of both high and low-density areas; also recorded: significant inhibition of growth in crowded areas"}, {"measurement": "Clonal growth, results read on the day 14", "setting": "[2]; Exp 17, a: close to densely seeded cell areas, High: Colchicine 1, Podophyllotoxin 3, Etoposide 200, 4-OH—OPB 6.7 μM in wells, DMSO 29.2 μl", "result": "(+)"}, {"measurement": "Clonal growth, results read on the day 14", "setting": "[2]; Exp 17, a: close to densely seeded cell areas, Low: Colchicine 0.1, Podophyllotoxin 0.3, Etoposide 20, 4-OH—OPB 0.67 μM in wells, DMSO 1.16 μl", "result": "(+"}, {"measurement": "Clonal growth, results read on the day 14", "setting": "[2]; Exp 17, a: close to densely seeded cell areas, Medium: Colchicine 0.3, Podophyllotoxin 0.9, Etoposide 60, 4-OH—OPB 2 μM in wells, DMSO 6.8 μl", "result": "(+"}, {"measurement": "Clonal growth, results read on the day 14", "setting": "[2]; Exp 17, b: sparsely seeded areas in the same agar culture, High: Colchicine 1, Podophyllotoxin 3, Etoposide 200, 4-OH—OPB 6.7 μM in wells, DMSO 29.2 μl", "result": "(+)"}, {"measurement": "Clonal growth, results read on the day 14", "setting": "[2]; Exp 17, b: sparsely seeded areas in the same agar culture, Low: Colchicine 0.1, Podophyllotoxin 0.3, Etoposide 20, 4-OH—OPB 0.67 μM in wells, DMSO 1.16 μl", "result": "+"}, {"measurement": "Clonal growth, results read on the day 14", "setting": "[2]; Exp 17, b: sparsely seeded areas in the same agar culture, Medium: Colchicine 0.3, Podophyllotoxin 0.9, Etoposide 60, 4-OH—OPB 2 μM in wells, DMSO 6.8 μl", "result": "+"}, {"measurement": "Clones in sparsely seeded locations of the agar", "setting": "[2]; Exp 17, compared with 4-OH-OPB", "result": "allow the growth of a few small clones in sparsely seeded locations of the agar; also recorded: to allow the growth of a few small clones in sparsely"}, {"measurement": "Significance", "setting": "[2]; a: close to densely seeded cell areas, High: Colchicine 1, Podophyllotoxin 3, Etoposide 200, 4-OH—OPB 6.7 μM in wells, DMSO 29.2 μl", "result": "Possible"}, {"measurement": "Significance", "setting": "[2]; a: close to densely seeded cell areas, Low: Colchicine 0.1, Podophyllotoxin 0.3, Etoposide 20, 4-OH—OPB 0.67 μM in wells, DMSO 1.16 μl", "result": "Doubtful"}, {"measurement": "Significance", "setting": "[2]; a: close to densely seeded cell areas, Medium: Colchicine 0.3, Podophyllotoxin 0.9, Etoposide 60, 4-OH—OPB 2 μM in wells, DMSO 6.8 μl", "result": "Doubtful"}, {"measurement": "Significance", "setting": "[2]; b: sparsely seeded areas, High: Colchicine 1, Podophyllotoxin 3, Etoposide 200, 4-OH—OPB 6.7 μM in wells, DMSO 29.2 μl", "result": "Possible"}, {"measurement": "Significance", "setting": "[2]; b: sparsely seeded areas, Low: Colchicine 0.1, Podophyllotoxin 0.3, Etoposide 20, 4-OH—OPB 0.67 μM in wells, DMSO 1.16 μl", "result": "No"}, {"measurement": "Significance", "setting": "[2]; b: sparsely seeded areas, Medium: Colchicine 0.3, Podophyllotoxin 0.9, Etoposide 60, 4-OH—OPB 2 μM in wells, DMSO 6.8 μl", "result": "No"}, {"measurement": "Control of metastatic cells leaving tumour", "setting": "[2]; ability of cells to leave a tumour, grow and infiltrate locally or grow in sparsely seeded areas, concluded from Exp 17", "result": "probably not"}, {"measurement": "Clonal growth, H high density area of cell gradient, High", "setting": "[2]; [4]", "result": "(+)"}, {"measurement": "Clonal growth, L low density area of cell gradient, High", "setting": "[2]; [4]", "result": "(+)"}, {"measurement": "Clonal growth, H high density area of cell gradient, Low", "setting": "[2]; [5]", "result": "(+"}, {"measurement": "Clonal growth, L low density area of cell gradient, Low", "setting": "[2]; [5]", "result": "+"}, {"measurement": "Clonal growth, H high density area of cell gradient, Medium", "setting": "[2]; [6]", "result": "(+"}, {"measurement": "Clonal growth, L low density area of cell gradient, Medium", "setting": "[2]; [6]", "result": "+"}, {"measurement": "Effect on cell cloning in soft agar", "setting": "[2]; preliminary results, in words", "result": "cytotoxic"}, {"measurement": "Control of settlement of metastatic cells", "setting": "[2]; single cells or very few cells spread to distant sites, concluded from Exp 17", "result": "partly"}, {"measurement": "Toxicity for body or dense cell populations", "setting": "[2]; supposed main advantages or disadvantages if used in cancer treatment, concluded from Exp 17", "result": "yes"}, {"measurement": "Tolerating long duration of treatment", "setting": "[2]; supposed, if used in cancer treatment", "result": "no"}]}
